The text below walks through data of patent US20250368614A1, “COMPOUNDS AND METHODS FOR YAP/TEAD MODULATION AND INDICATIONS THEREFOR” (OPNA BIO SA, priority 2023, published 2025).

This test relates to TEAD-dependent transcription (12XGTIIC TEAD response element luciferase reporter) in MSTO-211H cells. In words: TEAD-dependent transcription cell-based luciferase reporter assay in MSTO-211H+12XGTIIC cells. Conditions: Homo sapiens; MSTO-211H+12XGTIIC reporter cells, 24 hours compound incubation, luminescence normalized to cell viability signal, geometric mean; read-out: MSTO-211H GMean IC50 (uM) Cell Assay Reporter Cell Variant: TEAD. From the text: Determine Inhibitor Activity Against TEAD-Dependent Transcription in a Cell-Based Reporter Assay
The human mesothelioma cell line MSTO-211H was stably transfected with a pGL4.21 plasmid containing a synthetic promoter with 12 copies of the GTIIC TEAD response element that drives the expression of a luciferase reporter gene^1 using Lipofectamine transfection reagent (Thermo Fisher). Transfected cells were selected using puromycin and single cell clones expressing this construct (referred to as MSTO-211H+12XGTIIC) were generated by limiting dilution. MSTO-211H cells was characterized by genetic alterations in key components of the Hippo pathway^2, resulting in up-regulation of YAP/TEAD-mediated transcription. […] To evaluate TEAD inhibitors, the MSTO-211H+12XGTIIC cell line was seeded in a 96-well plate in 50 μL of culture media at 1×10^4 cells per well and incubated at 37° C. overnight. Serial dilutions of compounds (in total volume of 50 μL of culture media) were added to the cells and incubated at 37° C. for 24 hours. Each plate included cells treated with DMSO as high controls and cells treated with 20 μM of the reference compound K-975 (a known TEAD inhibitor^3) as low controls. Cell viability was assayed by the addition of 25 μL of CellTiter-Fluor reagent (Promega) followed by a 30-minute incubation at 37° C. and quantification of the fluorescence signal (Ex400/Em505). Subsequently, luciferase expression was assayed by the addition of 25 μL of ONE-Glo reagent (Promega) followed by a 10-minute incubation at room temperature and quantification of the luminescence signal. The luminescence signal was normalized to the fluorescence signal to correct for any loss in cell viability over the 24-hour compound incubation period. The percentage of inhibition of normalized luminescence signal, indicative of compound-mediated inhibition of TEAD-dependent transcription, at individual compound concentrations relative to high and low controls was calculated. The data were analyzed by using nonlinear regression to generate IC50 values for individual compounds.
Background: Reporter assays use an easily measured gene product as a stand-in for the process of interest.
The term IC50 denotes the concentration that gives 50% inhibition. Consider `C=CC(=O)Nc1cncc(C(=O)N2CCc3c(cccc3Nc3ccc(C(F)(F)F)cc3)C2)c1` [Compound O-0037, N-(5-(5-((4-(trifluoromethyl)phenyl)amino)-1,2,3,4-tetrahydroisoquinoline-2-carbonyl)pyridin-3-yl)acrylamide], for which the IC50 lay in the range of 0.001 to 10 µM.

As for `Cc1nc(CC(=O)N2CCc3c(cccc3Nc3ccc(C(F)(F)F)cc3)C2)co1` [Compound O-0005, 2-(2-methyloxazol-4-yl)-1-(5-((4-(trifluoromethyl)phenyl)amino)-3,4-dihydroisoquinolin-2(1H)-yl)ethan-1-one], the IC50 lay in the range of 0.001 to 10 µM. As for `O=C1NC(=O)C(CC(=O)N2CCc3c(cccc3Nc3ccc(C(F)(F)F)cc3)C2)N1` (stereo not shown) [Compound O-0055, 5-(2-oxo-2-(5-((4-(trifluoromethyl)phenyl)amino)-3,4-dihydroisoquinolin-2(1H)-yl)ethyl)imidazolidine-2,4-dione], the figure is 0.001 to 10 µM; as for `CN(c1ccc(C(F)(F)F)cc1)c1cccc2c1CCN(C(=O)c1cccc3[nH]ccc13)C2` [Compound O-0012, (1H-indol-4-yl)(5-(methyl(4-(trifluoromethyl)phenyl)amino)-3,4-dihydroisoquinolin-2(1H)-yl)methanone], 0.001 to 10 µM. As to `CN(c1ccc(C(F)(F)F)cc1)c1ncnc2c1CCN(C(=O)CCS(=O)(=O)C(F)(F)F)C2` [Compound O-0025, 1-(4-(methyl(4-(trifluoromethyl)phenyl)amino)-5,8-dihydropyrido[3,4-d]pyrimidin-7(6H)-yl)-3-((trifluoromethyl)sulfonyl)propan-1-one], the 50% inhibitory concentration (IC50) was in the range of 0.001 to 10 µM. As for `O=C(NC1CC1)N1CCC(C(=O)N2CCc3c(cccc3Nc3ccc(C(F)(F)F)cn3)C2)C1` (stereo not shown) [Compound O-0092, N-cyclopropyl-3-(5-((5-(trifluoromethyl)pyridin-2-yl)amino)-1,2,3,4-tetrahydroisoquinoline-2-carbonyl)pyrrolidine-1-carboxamide], the figure is 0.001 to 10 µM. As for `CNS(=O)(=O)c1cccc(C(=O)N2CCc3c(cccc3Nc3ccc(C(F)(F)F)cc3)C2)c1` [Compound O-0200, N-methyl-3-(5-((4-(trifluoromethyl)phenyl)amino)-1,2,3,4-tetrahydroisoquinoline-2-carbonyl)benzenesulfonamide], the figure is 0.001 to 10 µM; as for `NC(=O)NCCC(=O)N1CCc2c(cccc2Nc2ccc(C(F)(F)F)nc2)C1` [Compound O-0189, 1-(3-oxo-3-(5-((6-(trifluoromethyl)pyridin-3-yl)amino)-3,4-dihydroisoquinolin-2(1H)-yl)propyl)urea], 0.001 to 10 µM. As for `O=C(CCc1cnc[nH]1)N1CCc2c(cccc2Nc2ccc(C(F)(F)F)cc2)C1` [Compound O-0054, 3-(1H-imidazol-5-yl)-1-(5-((4-(trifluoromethyl)phenyl)amino)-3,4-dihydroisoquinolin-2(1H)-yl)propan-1-one], the figure is 0.001 to 10 µM; as for `Nc1cccc(C(=O)N2CCc3c(cccc3Nc3ccc(C(F)(F)F)cc3)C2)c1` [Compound O-0028, (3-aminophenyl)(5-((4-(trifluoromethyl)phenyl)amino)-3,4-dihydroisoquinolin-2(1H)-yl)methanone], 10 to 100 µM.

Turning to `O=C(Cc1cnco1)N1CCc2c(cccc2Nc2ccc(C(F)(F)F)cc2)C1` [Compound O-0004, 2-(oxazol-5-yl)-1-(5-((4-(trifluoromethyl)phenyl)amino)-3,4-dihydroisoquinolin-2(1H)-yl)ethan-1-one], the IC50 fell in the range of 0.001 to 10 µM.

In the case of `O=C(Cc1cn[nH]c1)N1CCc2c(cccc2Nc2ccc(C(F)(F)F)nc2)C1` [Compound O-0059, 2-(1H-pyrazol-4-yl)-1-(5-((6-(trifluoromethyl)pyridin-3-yl)amino)-3,4-dihydroisoquinolin-2(1H)-yl)ethan-1-one], the IC50 lay within 0.001 to 10 µM. Consider `Nc1ccnc(C(=O)N2CCc3c(cccc3Nc3ccc(C(F)(F)F)cc3)C2)c1` [Compound O-0030, (4-aminopyridin-2-yl)(5-((4-(trifluoromethyl)phenyl)amino)-3,4-dihydroisoquinolin-2(1H)-yl)methanone], for which the 50% inhibitory concentration (IC50) is 0.001 to 10 µM. As for `C=CC(=O)Nc1ccc(C(=O)N2CCc3c(cccc3N(C)c3ccc(C(F)(F)F)cc3)C2)cc1` [Compound O-0019, N-(4-(5-(methyl(4-(trifluoromethyl)phenyl)amino)-1,2,3,4-tetrahydroisoquinoline-2-carbonyl)phenyl)acrylamide], the figure is 0.001 to 10 µM; as for `CN(c1ccc(C(F)(F)F)cn1)c1cccc2c1CCN(C(=O)CCS(=O)(=O)C(F)(F)F)C2` [Compound O-0022, 1-(5-(methyl(5-(trifluoromethyl)pyridin-2-yl)amino)-3,4-dihydroisoquinolin-2(1H)-yl)-3-((trifluoromethyl)sulfonyl)propan-1-one], 0.001 to 10 µM. With `O=C(c1cccc2[nH]ccc12)N1CCc2c(cccc2Nc2ccc(C(F)(F)F)cc2)C1` [Compound O-0027, (1H-indol-4-yl)(5-((4-(trifluoromethyl)phenyl)amino)-3,4-dihydroisoquinolin-2(1H)-yl)methanone], the IC50 is 0.001 to 10 µM. Regarding `O=C(C1CS(=O)(=O)C1)N1CCc2cc(Nc3ccc(C(F)(F)F)cc3)ccc2C1` [Compound O-0207, (1,1-dioxidothietan-3-yl)(6-((4-(trifluoromethyl)phenyl)amino)-3,4-dihydroisoquinolin-2(1H)-yl)methanone], the IC50 lay in the range of 0.001 to 10 µM. Next, `O=C(Cc1c[nH]cn1)N1CCc2c(cccc2Nc2ccc(C(F)(F)F)cc2)C1` [Compound O-0053, 2-(1H-imidazol-4-yl)-1-(5-((4-(trifluoromethyl)phenyl)amino)-3,4-dihydroisoquinolin-2(1H)-yl)ethan-1-one]: 0.001 to 10 µM. As to `CS(=O)(=O)c1nccc(C(=O)N2CCc3c(cccc3Nc3ccc(C(F)(F)F)cc3)C2)n1` [Compound O-0040, (2-(methylsulfonyl)pyrimidin-4-yl)(5-((4-(trifluoromethyl)phenyl)amino)-3,4-dihydroisoquinolin-2(1H)-yl)methanone], the IC50 was 0.001 to 10 µM. As for `C=CC(=O)Nc1cccc(C(=O)N2CCc3c(cccc3Nc3ccc(C(F)(F)F)cc3)C2)n1` [Compound O-0035, N-(6-(5-((4-(trifluoromethyl)phenyl)amino)-1,2,3,4-tetrahydroisoquinoline-2-carbonyl)pyridin-2-yl)acrylamide], the figure is 0.001 to 10 µM; as for `NC(=O)NCCC(=O)N1CCc2c(cccc2Nc2ccc(C(F)(F)F)cc2F)C1` [Compound O-0192, 1-(3-(5-((2-fluoro-4-(trifluoromethyl)phenyl)amino)-3,4-dihydroisoquinolin-2(1H)-yl)-3-oxopropyl)urea], 0.001 to 10 µM.

With `O=C(c1cccc2cc[nH]c12)N1CCc2c(cccc2Nc2ccc(C(F)(F)F)nc2)C1` [Compound O-0060, (1H-indol-7-yl)(5-((6-(trifluoromethyl)pyridin-3-yl)amino)-3,4-dihydroisoquinolin-2(1H)-yl)methanone], the IC50 is 0.001 to 10 µM.

Regarding `O=C1NC(=O)C(CC(=O)N2CCc3c(cccc3Nc3ccc(C(F)(F)F)c(F)c3)C2)N1` (stereo not shown) [Compound O-0197, 5-(2-(5-((3-fluoro-4-(trifluoromethyl)phenyl)amino)-3,4-dihydroisoquinolin-2(1H)-yl)-2-oxoethyl)imidazolidine-2,4-dione], the IC50 was in the range of 0.001 to 10 µM.

Consider `C=CC(=O)Nc1cccc(C(=O)N2CCc3c(cccc3Nc3ccc(C(F)(F)F)cc3)C2)c1` [Compound O-0034, N-(3-(5-((4-(trifluoromethyl)phenyl)amino)-1,2,3,4-tetrahydroisoquinoline-2-carbonyl)phenyl)acrylamide], for which the IC50 lay within 0.001 to 10 µM. As for `O=C(CCS(=O)(=O)C(F)(F)F)N1CCc2c(ncnc2Nc2ccc(C(F)(F)F)cc2)C1` [Compound O-0024, 1-(4-((4-(trifluoromethyl)phenyl)amino)-5,8-dihydropyrido[3,4-d]pyrimidin-7(6H)-yl)-3-((trifluoromethyl)sulfonyl)propan-1-one], the IC50 lay in the range of 0.001 to 10 µM. Consider `CS(=O)(=O)c1cccc(C(=O)N2CCc3c(cccc3Nc3ccc(C(F)(F)F)cc3)C2)c1` [Compound O-0202, (3-(methylsulfonyl)phenyl)(5-((4-(trifluoromethyl)phenyl)amino)-3,4-dihydroisoquinolin-2(1H)-yl)methanone], for which the IC50 fell in the range of 0.001 to 10 µM. Next, `O=C(Cc1cncs1)N1CCc2c(cccc2Nc2ccc(C(F)(F)F)cc2)C1` [Compound O-0003, 2-(thiazol-5-yl)-1-(5-((4-(trifluoromethyl)phenyl)amino)-3,4-dihydroisoquinolin-2(1H)-yl)ethan-1-one]: 0.001 to 10 µM. On to `CN(c1ccc(C(F)(F)F)cc1)c1cccc2c1CCN(C(=O)c1cccc(N)n1)C2` [Compound O-0014, (6-aminopyridin-2-yl)(5-(methyl(4-(trifluoromethyl)phenyl)amino)-3,4-dihydroisoquinolin-2(1H)-yl)methanone], for which the IC50 lay in the range of 0.001 to 10 µM.
